The values below come from paper PMC8219027, “A small-molecule inhibitor of the BRCA2-RAD51 interaction modulates RAD51 assembly and potentiates DNA damage-induced cell death” (Cell Chemical Biology, 2021).

pIC50, pKd: −log10 of the molar value. Like-named read-outs stand apart in the source and are kept apart here.

The subject of data set [1] is HCT116 cells (BRCA2 wild-type). As to the kind of experiment: SRB growth inhibition assay, combination of CAM833 and PARP1 inhibitor AZD2461. The note with it: HCT116, fixed dose 0.1 μM or 1 μM, 96 h. It is filed as cell-based, human. On the procedure:
(§1) Adherent cell lines (HCT116 and A549 cells) were seeded into flat-bottomed tissue culture 96-well plates in a volume of 150 μL of growth medium. HCT116 cells were seeded at 750 cells per well and A549 cells were seeded at 1000 cells per well. After 24 hours, compounds dissolved in DMSO were diluted in growth medium and were added to cells such that the final DMSO concentration was 1% (v/v) and the final volume in the well was 200 μL. Cells were then incubated in the presence of compound for 96 hours before fixation.
(§2) Medium was removed from cells and 100 μL of cold 1% (v/v) trichloroacetic acid was added for 30 minutes at 4 degrees. The plates were washed three times in tap water and left to dry at room temperature. The fixed cells were stained in a 0.057% sulphorodamine B/1% acetic acid solution (w/v) and incubated at room temperature with agitation for 30 minutes after which the dye was removed and the plates washed in 1% (v/v) acetic acid and left to dry. The dye was then solubilised in 10 mM Tris solution (pH8) and incubated for 30 minutes under agitation. The plates were then read on a PHERAstar plus plate reader (BMG Labtech) using the fluorescence intensity module (540-590 nm). Growth inhibition was calculated relative to DMSO controls and GI50 values were calculated using Graphpad Prism.
For the PARP inhibitor experiments, the SRB method was used as described above to measure growth inhibition with the exception that cells were seeded into 150 μl medium and then a combination of either 25 μl of CAM833, AZD2461 (SelleckChem; #S7029) or DMSO was added to give a total volume of 200 ul in the well.

The subject of a further data set is HCT116 cells. Briefly: SRB growth inhibition assay. It is filed as cell-based, human. The note with it: SRB 96 h, Figure 6D (cell line not given). On the procedure:
as §1, §2

Data set [2] addresses T1, HumRadA2 (Pyrococcus furiosus, UniProt O74036, D220A/E219S/I169M/K221M/V202Y/Y201A). As to the kind of experiment: Isothermal titration calorimetry (ITC) against HumRadA2. In kind it is binding, Pyrococcus furiosus (humanised RadA). Here is the method:
ITC was performed using a Microcal iTC200 instrument at 25°C. Experiments typically involved titrating a 10-fold excess of ligand in the injection syringe against the protein ([HumRadA2] = 60 μM or [ChimRAD51] = 20 μM) in either 200 mM Tris buffer at pH 7.5 and 100 mM NaCl (HumRadA2) or 20 mM potassium phosphate at pH 8.0 and 192 mM KCl (ChimRAD51). Titrations were typically performed with 5-10% DMSO and care was taken to ensure that the DMSO concentrations in the protein and ligand solutions were well matched. The raw ITC data were fitted using a single-site binding model in Microcal ITC LLC data analysis program in the Origin 7.0 package to derive the dissociation constant, stoichiometry and ΔH of binding. […]

A further data set can be described thus: Aqueous solubility. The note with it: for profiling in cell-based assays.
For data set [3], the target named is T1, HumRadA2. The note with it: ref Scott et al., 2016; read-out: Kd against HumRadA2 by ITC; cited from earlier work. In general terms: Isothermal titration calorimetry measures the heat released or taken up as one component is titrated into another.
Data set [4] deals with ChimRAD51. Also noted: method as in Moschetti et al., 2016. The note with it: ref Moschetti et al., 2016; read-out: Kd of binding to ChimRAD51 by ITC; cited from earlier work.
The target of data set [5] is ChimRAD51. Also noted: method as in Moschetti et al., 2016. The note with it: direct binding of BRC4 peptide; ref Moschetti et al., 2016; read-out: Kd of binding to ChimRAD51 by FP; cited from earlier work.
In data set [6] the target is ChimRAD51 (chimeric RAD51/RadA protein) (Pyrococcus furiosus | human). Briefly: fluorescence polarisation; competition: 10 nM Alexa Fluor 488-labelled BRC4 peptide and 50 nM ChimRAD51 (about 80-90% saturation), increasing concentration of competitor; isotherms fitted with the expression of Wang (1995). For orientation: Fluorescence polarisation rises when a labelled molecule tumbles more slowly, as on binding a larger partner.

Turning to `COC1CCN(C(=O)c2cc(Cc3n[nH]c(=O)c4ccccc34)ccc2F)CC1` [AZD2461, reference compound], the “growth inhibition by AZD2461 alone (in words)” value in data set [1] was “little effect”.

Broadly, the pIC50 is the negative decadic logarithm of the IC50, by convention in mol/L. Read a high pIC50 as a low IC50. In the case of `N.N.O=C([O-])C1(C(=O)[O-])CCC1.[Pt+2]` [Carboplatin, reference compound], the negative logarithm of the IC50 (pIC50) was 5.00 in the data set on HCT116 cells (0 Gy IR), 5.05 with HCT116 cells (1 Gy IR), 4.97 in the data set on HCT116 cells (2 Gy IR) and 4.95 in the data set with HCT116 cells (3 Gy IR).

Usually pKd stands for the negative decadic logarithm of the Kd, by convention in mol/L. Compound `Nc1cc2ccccc2cc1C(=O)O` [Compound 3, 3-amino-2-naphthoic acid] showed a negative-log Kd (pKd) at HumRadA2 [2] of 2.89.

The compound `C[C@H](NC(=O)[C@@H]1CCCN1C(=O)[C@H](Cc1c[nH]cn1)NC(=O)c1cc2ccccc2cc1N)C(N)=O` [Compound 4] gave a pKd at HumRadA2 [2] of 5.52.

With `C[C@H](NC(=O)c1ccc2ccccc2c1)C(=O)N1CCC[C@H]1C(=O)N[C@@H](C)c1ccccc1` [Compound 5, (S)-1-((2-Naphthoyl)-L-alanyl)-N-((S)-1-phenylethyl)pyrrolidine-2-carboxamide], in the data set “Aqueous solubility”, the “solubility in aqueous media (in words)” value is “too insoluble”. The negative-log Kd (pKd) at HumRadA2 [2] was 6.66.

Consider Ac-FHTA-NH2 [Compound 1], for which the pKd at HumRadA2 [3] is 3.55.

On to “BRC4 peptide: BRC4 repeat peptide of BRCA2 (CKEPTLLGFHTASGKKVKIAKESLDKVKNLFDEKEQ; Alexa Fluor 488 (maleimide dye) on the additional N-terminal cysteine)”, for which the values for the negative logarithm of the Kd (pKd) with ChimRAD51 [4] and with ChimRAD51 [5] were 8.22 and 8.40, respectively.

In data set [6], “N-terminal "FxxA" half of the BRC4 repeat (FxxA half-peptide)” gave a negative-log Kd (pKd) of 4.44.
